From PubChem BioAssay (NCI)
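Interpolation was linear, between the two tested concentrations surrounding the appropriate level; five concentrations were tested over 48 hours in 96-well plates. GI50: concentration for 50% inhibition of growth. TGI: concentration producing complete growth inhibition.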

Columns and labels:
Experiment in all cases: inhibition of tumour cell growth, NCI panel, 48 h
786-0 renal = test system: 786-0 renal
A498 renal = test system: A498 renal
A549 NSCLC = test system: A549 NSCLC
ACHN renal = test system: ACHN renal
BT-549 breast = test system: BT-549 breast
CAKI-1 renal = test system: CAKI-1 renal
CCRF-CEM leukemia = test system: CCRF-CEM leukemia
COLO 205 colon = test system: COLO 205 colon
DU-145 prostate = test system: DU-145 prostate
EKVX NSCLC = test system: EKVX NSCLC
HCC-2998 colon = test system: HCC-2998 colon
HCT-116 colon = test system: HCT-116 colon
HCT-15 colon = test system: HCT-15 colon
HL-60(TB) leukemia = test system: HL-60(TB) leukemia
HOP-62 NSCLC = test system: HOP-62 NSCLC
HOP-92 NSCLC = test system: HOP-92 NSCLC
HS 578T breast = test system: HS 578T breast
HT29 colon = test system: HT29 colon
IGROV1 ovarian = test system: IGROV1 ovarian
K-562 leukemia = test system: K-562 leukemia
KM12 colon = test system: KM12 colon
LOX IMVI melanoma = test system: LOX IMVI melanoma
M14 melanoma = test system: M14 melanoma
MALME-3M melanoma = test system: MALME-3M melanoma
MCF7 breast = test system: MCF7 breast
MDA-MB-231 breast = test system: MDA-MB-231 breast
MDA-MB-435 = test system: MDA-MB-435
MOLT-4 leukemia = test system: MOLT-4 leukemia
NCI-H226 lung = test system: NCI-H226 lung
NCI-H23 lung = test system: NCI-H23 lung
NCI-H460 lung = test system: NCI-H460 lung
NCI-H522 lung = test system: NCI-H522 lung
NCI/ADR-RES ovarian = test system: NCI/ADR-RES ovarian
OVCAR-3 ovarian = test system: OVCAR-3 ovarian
OVCAR-4 ovarian = test system: OVCAR-4 ovarian
OVCAR-5 ovarian = test system: OVCAR-5 ovarian
OVCAR-8 ovarian = test system: OVCAR-8 ovarian
PC-3 prostate = test system: PC-3 prostate
RPMI-8226 leukemia = test system: RPMI-8226 leukemia
RXF 393 renal = test system: RXF 393 renal
SF-268 CNS = test system: SF-268 CNS
SF-295 CNS = test system: SF-295 CNS
SF-539 CNS = test system: SF-539 CNS
SK-MEL-2 melanoma = test system: SK-MEL-2 melanoma
SK-MEL-28 melanoma = test system: SK-MEL-28 melanoma
SK-MEL-5 melanoma = test system: SK-MEL-5 melanoma
SK-OV-3 ovarian = test system: SK-OV-3 ovarian
SN12C renal = test system: SN12C renal
SNB-19 CNS = test system: SNB-19 CNS
SNB-75 CNS = test system: SNB-75 CNS
SR leukemia = test system: SR leukemia
SW-620 colon = test system: SW-620 colon
T-47D breast = test system: T-47D breast
TK-10 renal = test system: TK-10 renal
U251 CNS = test system: U251 CNS
UACC-257 melanoma = test system: UACC-257 melanoma
UACC-62 melanoma = test system: UACC-62 melanoma
UO-31 renal = test system: UO-31 renal

Work on `COc1cc2ncnc(Oc3ccc(NC(=O)Nc4ccc(CN5CCOCC5)c(C(F)(F)F)c4)c4ccccc34)c2cc1OC` yielded a GI50 (786-0 renal) of 0.831 µM, a TGI (786-0 renal) of 6.74 µM and a GI50 (A498 renal) of 0.0424 µM. It also gave a TGI (A498 renal) of 0.584 µM, a GI50 (A549 NSCLC) of 0.734 µM and a TGI (A549 NSCLC) of 10.5 µM. It also gave a GI50 (ACHN renal) of 0.303 µM, a TGI (ACHN renal) of 1.41 µM and a GI50 (BT-549 breast) of 1.11 µM. It also gave a TGI (BT-549 breast) of 5.28 µM, a GI50 (CAKI-1 renal) of 0.454 µM and a TGI (CAKI-1 renal) of 3.16 µM. For the same compound, the GI50 (CCRF-CEM leukemia) was 1.18 µM, the TGI (CCRF-CEM leukemia) was 40.7 µM and the GI50 (COLO 205 colon) was 0.558 µM. The TGI (COLO 205 colon) was 3.91 µM, the GI50 (DU-145 prostate) was 1.59 µM and the TGI (DU-145 prostate) was 12.4 µM. It also gave a GI50 (EKVX NSCLC) of 0.463 µM, a TGI (EKVX NSCLC) of 5.91 µM and a GI50 (HCC-2998 colon) of 4.8 µM. It also gave a TGI (HCC-2998 colon) of 18.8 µM, a GI50 (HCT-116 colon) of 0.802 µM and a TGI (HCT-116 colon) of 2.55 µM. For the same compound, the GI50 (HCT-15 colon) was 1.04 µM, the TGI (HCT-15 colon) was 4.7 µM and the GI50 (HL-60(TB) leukemia) was 0.502 µM. For the same compound, the TGI (HL-60(TB) leukemia) was 2.76 µM, the GI50 (HOP-62 NSCLC) was 2.5 µM and the TGI (HOP-62 NSCLC) was 10.1 µM. It also gave a GI50 (HOP-92 NSCLC) of 0.413 µM, a TGI (HOP-92 NSCLC) of 6.74 µM and a GI50 (HS 578T breast) of 1.28 µM. The TGI (HS 578T breast) was 7.27 µM, the GI50 (HT29 colon) was 0.547 µM and the TGI (HT29 colon) was 10.3 µM. It also gave a GI50 (IGROV1 ovarian) of 0.517 µM, a TGI (IGROV1 ovarian) of 3.25 µM and a TGI (K-562 leukemia) of 1.5 µM. For the same compound, the GI50 (KM12 colon) was 0.199 µM, the TGI (KM12 colon) was 2.3 µM and the GI50 (LOX IMVI melanoma) was 1.09 µM. The TGI (LOX IMVI melanoma) was 2.82 µM, the GI50 (M14 melanoma) was 0.935 µM and the TGI (M14 melanoma) was 4.14 µM. The GI50 (MALME-3M melanoma) was 0.302 µM, the TGI (MALME-3M melanoma) was 1.54 µM and the GI50 (MCF7 breast) was 0.363 µM. For the same compound, the TGI (MCF7 breast) was 10.7 µM, the GI50 (MDA-MB-231 breast) was 1.2 µM and the TGI (MDA-MB-231 breast) was 6.32 µM. It also gave a GI50 (MDA-MB-435) of 0.436 µM, a TGI (MDA-MB-435) of 2.83 µM and a GI50 (MOLT-4 leukemia) of 0.199 µM. For the same compound, the TGI (MOLT-4 leukemia) was 2.08 µM, the GI50 (NCI-H226 lung) was 0.264 µM and the TGI (NCI-H226 lung) was 16 µM. It also gave a GI50 (NCI-H23 lung) of 0.785 µM, a TGI (NCI-H23 lung) of 4.16 µM and a GI50 (NCI-H460 lung) of 1.37 µM. It also gave a TGI (NCI-H460 lung) of 3.64 µM, a GI50 (NCI-H522 lung) of 0.419 µM and a TGI (NCI-H522 lung) of 3.25 µM. The GI50 (NCI/ADR-RES ovarian) was 0.919 µM, the TGI (NCI/ADR-RES ovarian) was 21 µM and the GI50 (OVCAR-3 ovarian) was 1.17 µM. For the same compound, the TGI (OVCAR-3 ovarian) was 6.15 µM, the GI50 (OVCAR-4 ovarian) was 0.124 µM and the TGI (OVCAR-4 ovarian) was 8.69 µM. For the same compound, the GI50 (OVCAR-5 ovarian) was 1.15 µM, the TGI (OVCAR-5 ovarian) was 6.95 µM and the GI50 (OVCAR-8 ovarian) was 0.537 µM. It also gave a TGI (OVCAR-8 ovarian) of 6.53 µM, a GI50 (PC-3 prostate) of 1.75 µM and a TGI (PC-3 prostate) of 9.36 µM. For the same compound, the GI50 (RPMI-8226 leukemia) was 0.297 µM, the TGI (RPMI-8226 leukemia) was 2.02 µM and the GI50 (RXF 393 renal) was 0.692 µM. It also gave a TGI (RXF 393 renal) of 5.69 µM, a GI50 (SF-268 CNS) of 0.453 µM and a TGI (SF-268 CNS) of 8.94 µM. It also gave a GI50 (SF-295 CNS) of 1.36 µM, a TGI (SF-295 CNS) of 5.54 µM and a GI50 (SF-539 CNS) of 1.36 µM. For the same compound, the TGI (SF-539 CNS) was 16.1 µM, the GI50 (SK-MEL-2 melanoma) was 1.61 µM and the TGI (SK-MEL-2 melanoma) was 8.3 µM. The GI50 (SK-MEL-28 melanoma) was 0.666 µM, the TGI (SK-MEL-28 melanoma) was 3.03 µM and the GI50 (SK-MEL-5 melanoma) was 0.499 µM. For the same compound, the TGI (SK-MEL-5 melanoma) was 2.34 µM, the GI50 (SK-OV-3 ovarian) was 0.254 µM and the TGI (SK-OV-3 ovarian) was 1.26 µM. The GI50 (SN12C renal) was 0.292 µM, the TGI (SN12C renal) was 1.71 µM and the GI50 (SNB-19 CNS) was 2.35 µM. For the same compound, the TGI (SNB-19 CNS) was 12.2 µM, the GI50 (SNB-75 CNS) was 0.957 µM and the TGI (SNB-75 CNS) was 12.8 µM. For the same compound, the GI50 (SR leukemia) was 0.752 µM, the TGI (SR leukemia) was 6.02 µM and the GI50 (SW-620 colon) was 1.04 µM. For the same compound, the TGI (SW-620 colon) was 7.43 µM, the GI50 (T-47D breast) was 0.477 µM and the TGI (T-47D breast) was 5.17 µM. It also gave a GI50 (TK-10 renal) of 0.445 µM, a TGI (TK-10 renal) of 6.95 µM and a GI50 (U251 CNS) of 1.05 µM. It also gave a TGI (U251 CNS) of 4.01 µM, a GI50 (UACC-257 melanoma) of 0.964 µM and a TGI (UACC-257 melanoma) of 4.12 µM. For the same compound, the GI50 (UACC-62 melanoma) was 0.637 µM, the TGI (UACC-62 melanoma) was 3 µM and the GI50 (UO-31 renal) was 0.189 µM. It also gave a TGI (UO-31 renal) of 2.98 µM.
